Test results taken from patent US20230085307A1, “PYRIDAZINONE COMPOUND AND HERBICIDE” (NISSAN CHEMICAL CORPORATION, priority 2019, published 2023).

Legend:
rice flat sedge = experiment: Test Example 3: herbicidal effect by foliage application, Wagner pot (Table 18, symbol E); format: in vivo, rice flat sedge (Cyperus iria); conditions: for herbicidal effect on E: rice flat sedge: amount of applied herbicide 320 g/ha
How it was run: (§1)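 Plants were sown in alluvial soil held under 0.1–0.5 cm standing water and grown 14 days in a greenhouse at 25–30 °C. An emulsifiable formulation, water-diluted to the set dose, was then sprayed onto the foliage, and effects were scored three weeks later using previously defined criteria.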

Chinese sprangletop = experiment: Test Example 3: herbicidal effect by foliage application, Wagner pot (Table 18, symbol D); format: in vivo, chinese sprangletop (Leptochloa chinensis); conditions: for herbicidal effect on D: Chinese sprangletop: amount of applied herbicide 320 g/ha
How it was run: as §1

windgrass = experiment: Test Example 4: herbicidal effect by soil treatment (Table 19, symbol L); format: in vivo, windgrass (Apera spica-venti); conditions: amount of applied herbicide 320 g/ha
How it was run: (§2)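 Three weeks of greenhouse growth at 25° C. to 30° C. followed a uniform surface spray of water-diluted emulsion at a predetermined herbicide amount. Seeds had been sown beforehand under about 1.5 cm of sterilized diluvial soil. Grading followed criteria set out in an earlier test.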

Italian ryegrass [1] = experiment: Test Example 4: herbicidal effect by soil treatment (Table 19, symbol K); format: in vivo, Italian ryegrass (Lolium multiflorum); conditions: amount of applied herbicide 320 g/ha
How it was run: as §2

barnyard grass [2] = experiment: Test Example 3: herbicidal effect by foliage application, Wagner pot (Table 18, symbol H); format: in vivo, barnyard grass (Echinochloa crus-galli); conditions: for herbicidal effect on H: barnyard grass: amount of applied herbicide 320 g/ha
How it was run: as §1

wild oat [3] = experiment: Test Example 4: herbicidal effect by soil treatment (Table 19, symbol I); format: in vivo, wild oat (Avena fatua); conditions: amount of applied herbicide 320 g/ha
How it was run: as §2

Japanese bulrush = experiment: Test Example 1: herbicidal activity, application before weed generation under submerged conditions (Table 16, symbol B); format: in vivo, Japanese bulrush (Schoenoplectus juncoides); conditions: for Herbicidal effect on B: Japanese bulrush (grade 0-5): 320 g/ha applied herbicide
How it was run: (§3)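 Alluvial soil was flooded to 4 cm depth, weed seeds were sown mixed and 2.5-leaf rice seedlings were transplanted. On sowing day, the compound's emulsion, diluted in water to a set dose, was applied to the water surface. Plants grew at 25–30 °C and were scored 0–5 after three weeks.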

blackgrass [4] = experiment: Test Example 4: herbicidal effect by soil treatment (Table 19, symbol J); format: in vivo, blackgrass (Alopecurus myosuroides); conditions: amount of applied herbicide 320 g/ha
How it was run: as §2

lambsquarters [5] = experiment: Test Example 4: herbicidal effect by soil treatment (Table 19, symbol O); format: in vivo, lambsquarters (Chenopodium album); conditions: amount of applied herbicide 320 g/ha
How it was run: as §2

southern crabgrass [6] = experiment: Test Example 4: herbicidal effect by soil treatment (Table 19, symbol F); format: in vivo, southern crabgrass (Digitaria ciliaris); conditions: amount of applied herbicide 320 g/ha
How it was run: as §2

barnyard grass [7] = experiment: Test Example 4: herbicidal effect by soil treatment (Table 19, symbol H); format: in vivo, barnyard grass (Echinochloa crus-galli); conditions: amount of applied herbicide 320 g/ha
How it was run: as §2

late watergrass = experiment: Test Example 1: herbicidal activity, application before weed generation under submerged conditions (Table 16, symbol A); format: in vivo, late watergrass (Echinochloa oryzicola); conditions: for Herbicidal effect on A: late watergrass (grade 0-5): 320 g/ha applied herbicide
How it was run: as §3

chickweed = experiment: Test Example 4: herbicidal effect by soil treatment (Table 19, symbol P); format: in vivo, common chickweed (Stellaria media); conditions: amount of applied herbicide 320 g/ha
How it was run: as §2

velvetleaf [8] = experiment: Test Example 4: herbicidal effect by soil treatment (Table 19, symbol M); format: in vivo, velvetleaf (Abutilon theophrasti); conditions: amount of applied herbicide 320 g/ha
How it was run: as §2

oval-leafed pondweed = experiment: Test Example 1: herbicidal activity, application before weed generation under submerged conditions (Table 16, symbol C); format: in vivo, oval-leafed pondweed (Monochoria vaginalis); conditions: for Herbicidal effect on C: oval-leafed pondweed (grade 0-5): 320 g/ha applied herbicide
How it was run: as §3

redroot pigweed = experiment: Test Example 4: herbicidal effect by soil treatment (Table 19, symbol N); format: in vivo, redroot pigweed (Amaranthus retroflexus); conditions: amount of applied herbicide 320 g/ha
How it was run: as §2

green foxtail [9] = experiment: Test Example 4: herbicidal effect by soil treatment (Table 19, symbol G); format: in vivo, green foxtail (Setaria viridis); conditions: amount of applied herbicide 320 g/ha
How it was run: as §2

persian speedwell [10] = experiment: Test Example 4: herbicidal effect by soil treatment (Table 19, symbol R); format: in vivo, Persian speedwell (Veronica persica); conditions: amount of applied herbicide 320 g/ha
How it was run: as §2

southern crabgrass [11] = experiment: Test Example 5: herbicidal effect by foliage application, plastic box (Table 20, symbol F); format: in vivo, southern crabgrass (Digitaria ciliaris); conditions: foliage application, 320 g/ha, three weeks after application
How it was run: (§4)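 Plants sown in sterilized diluvial soil and grown 14 days in a greenhouse at 25° C to 30° C, then sprayed on the foliage with the compound's emulsion diluted in water to a predetermined herbicide amount. Injury to weeds and crops scored three weeks after application on a visual rating scale.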

green foxtail [12] = experiment: Test Example 5: herbicidal effect by foliage application, plastic box (Table 20, symbol G); format: in vivo, green foxtail (Setaria viridis); conditions: foliage application, 320 g/ha, three weeks after application
How it was run: as §4

blackgrass [13] = experiment: Test Example 5: herbicidal effect by foliage application, plastic box (Table 20, symbol J); format: in vivo, blackgrass (Alopecurus myosuroides); conditions: foliage application, 320 g/ha, three weeks after application
How it was run: as §4

lambsquarters [14] = experiment: Test Example 5: herbicidal effect by foliage application, plastic box (Table 20, symbol O); format: in vivo, lambsquarters (Chenopodium album); conditions: foliage application, 320 g/ha, three weeks after application
How it was run: as §4

velvetleaf [15] = experiment: Test Example 5: herbicidal effect by foliage application, plastic box (Table 20, symbol M); format: in vivo, velvetleaf (Abutilon theophrasti); conditions: foliage application, 320 g/ha, three weeks after application
How it was run: as §4

wild oat [16] = experiment: Test Example 5: herbicidal effect by foliage application, plastic box (Table 20, symbol I); format: in vivo, wild oat (Avena fatua); conditions: foliage application, 320 g/ha, three weeks after application
How it was run: as §4

persian speedwell [17] = experiment: Test Example 5: herbicidal effect by foliage application, plastic box (Table 20, symbol R); format: in vivo, Persian speedwell (Veronica persica); conditions: foliage application, 320 g/ha, three weeks after application
How it was run: as §4

barnyard grass [18] = experiment: Test Example 5: herbicidal effect by foliage application, plastic box (Table 20, symbol H); format: in vivo, barnyard grass (Echinochloa crus-galli); conditions: foliage application, 320 g/ha, three weeks after application
How it was run: as §4

Italian ryegrass [19] = experiment: Test Example 5: herbicidal effect by foliage application, plastic box (Table 20, symbol K); format: in vivo, Italian ryegrass (Lolium multiflorum); conditions: foliage application, 320 g/ha, three weeks after application
How it was run: as §4

[20] = amount of applied herbicide 320 g/ha

Cc1nn(C)c(=O)c(-c2c(-c3ccc(OC(F)F)cc3)sc3ccc(Cl)cc23)c1O [2-374]
herbicidal effect on E: rice flat sedge (rice flat sedge): 5 (Herbicidal rate of 90% or more (almost completely withered))
herbicidal effect on D: Chinese sprangletop (Chinese sprangletop): 4 (Herbicidal rate of 70% or more and less than 90%)
herbicidal effect, L: windgrass (windgrass): 5 (Herbicidal rate of 90% or more (almost completely withered))
herbicidal effect, K: Italian ryegrass (Italian ryegrass [1]): 4 (Herbicidal rate of 70% or more and less than 90%)
herbicidal effect on H: barnyard grass (barnyard grass [2]): 5 (Herbicidal rate of 90% or more (almost completely withered))
herbicidal effect, I: wild oat (wild oat [3]): 0 (Herbicidal rate of 5% or less (almost no effect))
Herbicidal effect on B: Japanese bulrush (grade 0-5) (Japanese bulrush): 0 (Herbicidal rate of 5% or less (almost no effect))
herbicidal effect, J: blackgrass (blackgrass [4]): 3 (Herbicidal rate of 40% or more and less than 70%)
herbicidal effect, O: lambsquarters (lambsquarters [5]): 5 (Herbicidal rate of 90% or more (almost completely withered))
herbicidal effect, F: southern crabgrass (southern crabgrass [6]): 4 (Herbicidal rate of 70% or more and less than 90%)
herbicidal effect, H: barnyard grass (barnyard grass [7]): 4 (Herbicidal rate of 70% or more and less than 90%)
Herbicidal effect on A: late watergrass (grade 0-5) (late watergrass): 3 (Herbicidal rate of 40% or more and less than 70%)
herbicidal effect, P: chickweed (chickweed): 3 (Herbicidal rate of 40% or more and less than 70%)
herbicidal effect, M: velvetleaf (velvetleaf [8]): 3 (Herbicidal rate of 40% or more and less than 70%)
Herbicidal effect on C: oval-leafed pondweed (grade 0-5) (oval-leafed pondweed): 0 (Herbicidal rate of 5% or less (almost no effect))
herbicidal effect, N: redroot pigweed (redroot pigweed): 4 (Herbicidal rate of 70% or more and less than 90%)
herbicidal effect, G: green foxtail (green foxtail [9]): 1 (Herbicidal rate of 5% or more and less than 20%)
herbicidal effect, R: persian speedwell (persian speedwell [10]): 5 (Herbicidal rate of 90% or more (almost completely withered))

CCCC(=O)Oc1c(C)nn(C)c(=O)c1-c1c(-c2cnccc2Cl)sc2ccc(F)cc12 [2-386]
herbicidal effect on E: rice flat sedge (rice flat sedge): 3 (Herbicidal rate of 40% or more and less than 70%)
herbicidal effect on D: Chinese sprangletop (Chinese sprangletop): 4 (Herbicidal rate of 70% or more and less than 90%)
herbicidal effect, L: windgrass (windgrass): 2 (Herbicidal rate of 20% or more and less than 40%)
herbicidal effect, K: Italian ryegrass (Italian ryegrass [1]): 4 (Herbicidal rate of 70% or more and less than 90%)
herbicidal effect on H: barnyard grass (barnyard grass [2]): 5 (Herbicidal rate of 90% or more (almost completely withered))
herbicidal effect, I: wild oat (wild oat [3]): 1 (Herbicidal rate of 5% or more and less than 20%)
Herbicidal effect on B: Japanese bulrush (grade 0-5) (Japanese bulrush): 0 (Herbicidal rate of 5% or less (almost no effect))
herbicidal effect, J: blackgrass (blackgrass [4]): 0 (Herbicidal rate of 5% or less (almost no effect))
herbicidal effect, O: lambsquarters (lambsquarters [5]): 4 (Herbicidal rate of 70% or more and less than 90%)
herbicidal effect, F: southern crabgrass (southern crabgrass [6]): 4 (Herbicidal rate of 70% or more and less than 90%)
herbicidal effect, H: barnyard grass (barnyard grass [7]): 4 (Herbicidal rate of 70% or more and less than 90%)
Herbicidal effect on A: late watergrass (grade 0-5) (late watergrass): 2 (Herbicidal rate of 20% or more and less than 40%)
herbicidal effect, P: chickweed (chickweed): 5 (Herbicidal rate of 90% or more (almost completely withered))
herbicidal effect, M: velvetleaf (velvetleaf [8]): 1 (Herbicidal rate of 5% or more and less than 20%)
Herbicidal effect on C: oval-leafed pondweed (grade 0-5) (oval-leafed pondweed): 0 (Herbicidal rate of 5% or less (almost no effect))
herbicidal effect, N: redroot pigweed (redroot pigweed): 4 (Herbicidal rate of 70% or more and less than 90%)
herbicidal effect, G: green foxtail (green foxtail [9]): 3 (Herbicidal rate of 40% or more and less than 70%)
herbicidal effect, R: persian speedwell (persian speedwell [10]): 5 (Herbicidal rate of 90% or more (almost completely withered))

CCOc1cc(F)ccc1-c1sc2cc(OC)c(Cl)cc2c1-c1c(O)c(C)nn(C)c1=O [5-077]
herbicidal effect on southern crabgrass (F) (southern crabgrass [11]): 5 (Herbicidal rate of 90% or more (almost completely withered))
herbicidal effect on rice flat sedge (E) (rice flat sedge; 320 g/ha): 4 (Herbicidal rate of 70% or more and less than 90%)
herbicidal effect on green foxtail (G) (green foxtail [12]): 5 (Herbicidal rate of 90% or more (almost completely withered))
herbicidal effect on blackgrass (J) (blackgrass [13]): 3 (Herbicidal rate of 40% or more and less than 70%)
herbicidal effect on Chinese sprangletop (D) (Chinese sprangletop; 320 g/ha): 2 (Herbicidal rate of 20% or more and less than 40%)
herbicidal effect on lambsquarters (O) (lambsquarters [14]): 5 (Herbicidal rate of 90% or more (almost completely withered))
herbicidal effect on velvetleaf (M) (velvetleaf [15]): 3 (Herbicidal rate of 40% or more and less than 70%)
L: windgrass, herbicidal effect grade (windgrass): 0 (Herbicidal rate of 5% or less (almost no effect))
K: Italian ryegrass, herbicidal effect grade (Italian ryegrass [1]): 0 (Herbicidal rate of 5% or less (almost no effect))
herbicidal effect on barnyard grass (H) (barnyard grass [2]; 320 g/ha): 5 (Herbicidal rate of 90% or more (almost completely withered))
herbicidal effect on wild oat (I) (wild oat [16]): 3 (Herbicidal rate of 40% or more and less than 70%)
I: wild oat, herbicidal effect grade (wild oat [3]): 0 (Herbicidal rate of 5% or less (almost no effect))
Herbicidal effect, B: Japanese bulrush (Japanese bulrush; [20]): 0 (Herbicidal rate of 5% or less (almost no effect))
herbicidal effect on persian speedwell (R) (persian speedwell [17]): 4 (Herbicidal rate of 70% or more and less than 90%)
J: blackgrass, herbicidal effect grade (blackgrass [4]): 0 (Herbicidal rate of 5% or less (almost no effect))
O: lambsquarters, herbicidal effect grade (lambsquarters [5]): 3 (Herbicidal rate of 40% or more and less than 70%)
F: southern crabgrass, herbicidal effect grade (southern crabgrass [6]): 2 (Herbicidal rate of 20% or more and less than 40%)
H: barnyard grass, herbicidal effect grade (barnyard grass [7]): 0 (Herbicidal rate of 5% or less (almost no effect))
Herbicidal effect, A: late watergrass (late watergrass; [20]): 2 (Herbicidal rate of 20% or more and less than 40%)
herbicidal effect on barnyard grass (H) (barnyard grass [18]): 5 (Herbicidal rate of 90% or more (almost completely withered))
P: chickweed, herbicidal effect grade (chickweed): 0 (Herbicidal rate of 5% or less (almost no effect))
herbicidal effect on Italian ryegrass (K) (Italian ryegrass [19]): 0 (Herbicidal rate of 5% or less (almost no effect))
M: velvetleaf, herbicidal effect grade (velvetleaf [8]): 0 (Herbicidal rate of 5% or less (almost no effect))
Herbicidal effect, C: oval-leafed pondweed (oval-leafed pondweed; [20]): 4 (Herbicidal rate of 70% or more and less than 90%)
N: redroot pigweed, herbicidal effect grade (redroot pigweed): 3 (Herbicidal rate of 40% or more and less than 70%)
G: green foxtail, herbicidal effect grade (green foxtail [9]): 0 (Herbicidal rate of 5% or less (almost no effect))
R: persian speedwell, herbicidal effect grade (persian speedwell [10]): 0 (Herbicidal rate of 5% or less (almost no effect))
